{"source": "ChEMBL document CHEMBL4842332", "about": "“Eriocitrin Contained in Lemon Peel Ameliorates Disuse Muscle Atrophy by Suppressing the Expression of Atrogin-1 and MuRF-1 in Denervated Mice” (2021)", "key": {"Mus musculus [1]": {"species": "Mus musculus", "assay": "Antioxidant activity in denervated C57BL/6NCrSlc mouse assessed as […] in GSSG/GSH ratio in gastrocnemius muscle measured after 30 mins", "format": "functional, organism-based"}, "Mus musculus [2]": {"species": "Mus musculus", "assay": "Upregulation of IGF-1 mRNA expression in denervated C57BL/6NCrSlc mouse by RT-PCR analysis", "format": "functional"}, "Mus musculus [3]": {"species": "Mus musculus", "assay": "Effect of PPARgamma mRNA expression in denervated C57BL/6NCrSlc mouse by RT-PCR analysis", "format": "functional, organism-based"}, "Mus musculus [4]": {"species": "Mus musculus", "assay": "Upregulation of SOD1 mRNA expression in denervated C57BL/6NCrSlc mouse by RT-PCR analysis", "format": "functional"}, "Mus musculus [5]": {"species": "Mus musculus", "assay": "Effect of PPARdelta mRNA expression in denervated C57BL/6NCrSlc mouse by RT-PCR analysis", "format": "functional, organism-based"}, "Mus musculus [6]": {"species": "Mus musculus", "assay": "Upregulation of Atrogin-1 mRNA expression in denervated C57BL/6NCrSlc mouse by RT-PCR analysis", "format": "functional"}, "Mus musculus [7]": {"species": "Mus musculus", "assay": "Suppression of denervation-induced gastrocnemius muscle weight loss in C57BL/6NCrSlc mouse", "format": "functional, organism-based"}, "Mus musculus [8]": {"species": "Mus musculus", "assay": "Downregulation of MuRF-1 mRNA expression in denervated C57BL/6NCrSlc mouse by RT-PCR analysis", "format": "functional"}, "Mus musculus [9]": {"species": "Mus musculus", "assay": "Antioxidant activity in denervated C57BL/6NCrSlc mouse assessed as […] in lipid peroxide level in gastrocnemius muscle measured after 30 mins", "format": "functional, organism-based"}, "Mus musculus [10]": {"species": "Mus musculus", "assay": "Downregulation of FOXO1 mRNA expression in denervated C57BL/6NCrSlc mouse by RT-PCR analysis", "format": "functional"}, "Mus musculus [11]": {"species": "Mus musculus", "assay": "Effect on PGC1a mRNA expression in denervated C57BL/6NCrSlc mouse by RT-PCR analysis", "format": "functional"}, "Mus musculus [12]": {"species": "Mus musculus", "assay": "Toxicity in denervated C57BL/6NCrSlc mouse assessed as effect on body weight (reference value: 25.74 g)", "format": "functional"}}, "note": "Active and inactive are the calls of the source. The calls are words filed in the database; no cut-off is given here.", "data": [{"smiles": "C[C@@H]1O[C@@H](OC[C@H]2O[C@@H](Oc3cc(O)c4c(c3)O[C@H](c3ccc(O)c(O)c3)CC4=O)[C@H](O)[C@@H](O)[C@@H]2O)[C@H](O)[C@H](O)[C@H]1O", "note": "[ERIOCITRIN]", "values": [{"measurement": "Activity", "setting": "Mus musculus [1]", "value": "Active"}, {"measurement": "Activity", "setting": "Mus musculus [2]", "value": "Active"}, {"measurement": "Activity", "setting": "Mus musculus [3]", "value": "inactive"}, {"measurement": "Activity", "setting": "Mus musculus [4]", "value": "Active"}, {"measurement": "Activity", "setting": "Mus musculus [5]", "value": "inactive"}, {"measurement": "Activity", "setting": "Mus musculus [6]", "value": "inactive"}, {"measurement": "Activity", "setting": "Mus musculus [7]", "value": "Active"}, {"measurement": "Activity", "setting": "Mus musculus [8]", "value": "Active"}, {"measurement": "Activity", "setting": "Mus musculus [9]", "value": "Active"}, {"measurement": "Activity", "setting": "Mus musculus [10]", "value": "Active"}, {"measurement": "Activity", "setting": "Mus musculus [11]", "value": "inactive"}, {"measurement": "Activity", "setting": "Mus musculus [12]", "value": 25.37, "unit": "g"}]}]}
